One assay has as its target T1, human PPARγ LBD (Homo sapiens, UniProt P37231).
T1 construct: incubated with GST-fused human PPARγ-LBD, terbium-labeled anti-GST antibody; purchased Invitrogen
T1 sequence (P37231 238-503 limits assumed): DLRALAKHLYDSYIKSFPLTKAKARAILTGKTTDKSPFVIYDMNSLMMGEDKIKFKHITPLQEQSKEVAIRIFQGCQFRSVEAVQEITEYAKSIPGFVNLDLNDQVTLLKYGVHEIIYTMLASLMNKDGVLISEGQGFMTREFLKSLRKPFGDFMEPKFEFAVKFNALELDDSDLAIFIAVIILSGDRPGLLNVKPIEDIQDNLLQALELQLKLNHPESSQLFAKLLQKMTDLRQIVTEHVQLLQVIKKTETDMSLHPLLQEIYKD
In words: LanthaScreen TR-FRET PPARγ competitive binding assay. The following applies: purified human PPARγ LBD. The protocol:
The LanthaScreen time-resolved fluorescence resonance energy transfer (TR-FRET) PPARγ competitive binding assay (Invitrogen) was performed according to the manufacturer's protocol. […] The FRET signal was measured by excitation at 340 nm and emission at 520 nm for fluorescein and 495 nm for terbium. In this assay, test compounds' binding to PPARγ LBD competed with Pan-PPAR Green and replaced it, resulting in a decrease of signal. The ability of binding to the PPARγ-LBD was measured by the decrease of the 520 nm/495 nm ratio. Graphs were plotted as fold changes of the FRET signal for compounds over the DMSO-only control.
Background: TR-FRET usually uses a lanthanide donor and a delayed reading to cut background.

The target of the next assay is T2, PPARγ Y473A (Homo sapiens, UniProt P37231, Y501A).
T2 construct: expressed in transfected cells; host or cells: HEK293T
T2 sequence (P37231 172-476 isoform P37231-2 Y473A): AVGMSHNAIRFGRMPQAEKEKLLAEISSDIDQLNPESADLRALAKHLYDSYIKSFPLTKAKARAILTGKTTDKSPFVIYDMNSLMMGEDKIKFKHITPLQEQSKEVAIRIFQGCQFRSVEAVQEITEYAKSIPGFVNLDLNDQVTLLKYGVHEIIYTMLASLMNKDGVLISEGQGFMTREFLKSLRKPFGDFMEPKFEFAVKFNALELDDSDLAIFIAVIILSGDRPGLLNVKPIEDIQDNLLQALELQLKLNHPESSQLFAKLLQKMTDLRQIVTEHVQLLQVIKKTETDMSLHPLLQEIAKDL
In words: Y473A assay (PPARγ reporter gene assay with Tyr473 of pBIND-PPARγ-LBD mutated into alanine). The assay is classed as cell-based. The method, then:
All chemicals were purchased from Sigma-Aldrich (St. Louis, MO, USA). All medium and serum were obtained from Gibco (Invitrogen). The wild-type gene of human PPARγ-LBD (amino acids 172–476) was obtained by PCR and cloned into pBIND vector (Promega). Mutations in pBIND-PPARγ-LBD were created by site-directed mutagenesis using the Fast Mutagenesis System (TransGen Biotech, Beijing, China).
The determination of nuclear receptor activation was performed as previously. Briefly, HEK293T cells were transfected with GAL4-pGL4-luc reporter plasmid and pBIND-PPARγ-LBD expression plasmid using Lipofectamine 2000 (Invitrogen) for 6 h before treatment with compounds for 20–24 h. Activity was determined by the Luciferase Assay System (Promega).
Supplementary Figure 1: Workflow of virtual screening and the procedure used for selecting hits whose bioactivity was experimentally tested. We developed a virtual screening workflow by Discovery Studio 4.0 software to identify selective agonists of PPARγ. The key steps of this workflow is the two pharmacophore models. One is the antipharmacophore model which excludes compounds whose structure are similar to known full agonists, the other one is the pharmacophore model which identifies selective agonists. Biological assays were performed after virtual steps to further screen leads. […]

The target in assay [1] is T3, human PPARγ-LBD (corepressor peptide displacement) (Homo sapiens, UniProt P37231).
T3 construct: incubated with GST-fused human PPARγ-LBD, terbium-labeled anti-GST antibody; purchased Invitrogen
T3 sequence (P37231 238-503 limits assumed): T1 sequence (P37231 238-503 limits assumed)
Put plainly: LanthaScreen TR-FRET corepressor peptide displacement assay. The assay is classed as biochemical. The protocol: PPARγ coregulator peptide interaction assay was performed by the LanthaScreen TR-FRET PPARγ Coactivator Assay Kit (Invitrogen) according to the manufacturer's instructions. Serial concentrations of compounds were incubated with GST-fused human PPARγ-LBD, terbium-labeled anti-GST antibody and fluorescein-labeled peptide for 4 h. The measurement and data calculation were as above.

In another assay the test system is diabetic KKAy mice. In words: Diabetic KKAy mice, 21 days treatment (fasting blood glucose, OGTT, ITT, body weight).

Procedure for diabetic KKAy mice: Fasting blood glucose was measured with Onetoch Ultra Teststrip (Johnson & Johnson) at day 0, 3, 7, 14, 21, and body weight were monitored during these days.
After 14 days of treatment, oral glucose tolerance test (OGTT) was performed. Mice were fasted for 6 h with free access to water. 2 g/kg of glucose was given by gavage and blood glucose was measured at 0, 30, 60, 90, and 120 min.
After 21 days of feeding, insulin tolerance test (ITT) was carried out. Mice were fasted for 4 h before being injected 1 U/kg of recombinant human insulin (Novo Nordisk) subcutaneously, and blood glucose was measured at 0, 40, 90, and 120 min after insulin injection.

On human PPARγ LBD, “2-[2-(1, 2-dimethyl-1H-indol-3-yl)-2-oxo-acetylamino]-benzamide [Compound F12016]” registered an IC50 of 36.3 µM and a Ki of 13 µM. The midpoint of the response at PPARγ Y473A, the EC50, lay at 5.21 µM. Besides, the “PPARγ Y473A (RGZ %)” value on PPARγ Y473A (activation relative to rosiglitazone (RGZ)) is given as 29.12%. For the same substance, in assay [1] (corepressor peptide NCoR), the “EC50/IC50 NCoR” value was determined as 4.425 µM. Further, the “Efficacy NCoR” value in assay [1] (corepressor peptide NCoR, relative to rosiglitazone) came out at 91%. Further, the “EC50/IC50 SMRT” value in assay [1] (corepressor peptide SMRT) came to 2.861 µM. Further, the “Efficacy SMRT” value in assay [1] (corepressor peptide SMRT, relative to rosiglitazone) is on record as 58%. Moreover, in assay [1] (dose-dependent, similar degree as rosiglitazone), the “displacement of corepressors NCoR and SMRT” value is on record as “able to efficiently displace corepressors”. Further, the fasting blood glucose entry in the assay on diabetic KKAy mice (F12016 75 mg/kg by gavage once daily, day 3, 7, 14 and 21, vs vehicle) is recorded as “significantly reduced fasting blood glucose”. For the same substance, in the assay on diabetic KKAy mice (after 14 days of treatment, 2 g/kg glucose, F12016 75 mg/kg), the “glucose tolerance (OGTT)” value is reported as “significantly improved glucose tolerance”. Also, the “blood glucose after insulin injection (ITT)” value in the assay on diabetic KKAy mice (after 21 days, insulin 1 IU/kg, F12016 75 mg/kg, rosiglitazone 5 mg/kg) is listed as “significantly reduced blood glucose”. The average body weight result in the assay on diabetic KKAy mice (after 21 days, F12016 75 mg/kg, rosiglitazone 5 mg/kg, vs vehicle) is “much lower than that of vehicle controls”.

As usually defined, the IC50 is the concentration that inhibits the measured activity by half. A higher IC50 goes with weaker potency. For orientation: Ki means a dissociation constant, usually derived from enzyme kinetics or from competition with a known ligand. Low readings indicate higher affinity, high ones lower affinity. For orientation: EC50 means the midpoint of the concentration-response curve.
